US9566312B2, “Cyclic peptides and use as medicines” (priority 2012, dated 2017)
Read-outs that look alike come from different tables or passages of the source. Starred links: 1 amine or outer side, 2 acyl side, 3 side chain; linkers in the order of their positions; H or OH if unused. Non-standard residues stand in square brackets, D forms with d. Residues, ends and D or L forms follow the SMILES beside them. X64 = COC[C@@H]1CN(C[C@@H](C)[C@@H](C(=O)[*:2])N(C)[*:1])CCO1; X60 = C[C@H](CCCN1CC2CCC(C1)N2C)[C@@H](C(=O)[*:2])N(C)[*:1]; X83 = C[C@H](COC(=O)N1CCC(O)CC1)[C@@H](C(=O)[*:2])N(C)[*:1]; X39 = C[C@H](CN1CCC(C#N)CC1)[C@@H](C(=O)[*:2])N(C)[*:1]; MeBmt = C/C=C/C[C@@H](C)[C@@H](O)[C@H](NC)C(=O)O; NMeVal(4-OMe,3S) = CN[C@H](C(=O)O)[C@H](C)COC; X86 = C[C@@H](CO)[C@@H](C(=O)[*:2])N(C)[*:1]; NMeL = CN[C@@H](CC(C)C)C(=O)O; NMeV = CN[C@H](C(=O)O)C(C)C; dNMeS = CN[C@H](CO)C(=O)O; dNMeA = CN[C@H](C)C(=O)O; Abu = CC[C@H](N)C(=O)O

Legend:
CypF = CypF (Homo sapiens (Human), UniProt P30405); experiment: Inhibitor binding to cyclophilin proteins by SPR, CypF; details: 1:1 binding model
CypF, sequence (P30405 30-207): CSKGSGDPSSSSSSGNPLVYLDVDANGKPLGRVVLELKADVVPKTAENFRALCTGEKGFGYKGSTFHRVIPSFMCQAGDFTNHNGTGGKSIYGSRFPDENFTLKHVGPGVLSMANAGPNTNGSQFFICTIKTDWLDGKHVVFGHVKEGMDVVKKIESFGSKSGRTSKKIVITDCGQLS
Method: (§1) Method 1: Measuring Inhibitor Binding to Cyclophilin Proteins
(§2) Binding of inhibitors to expressed cyclophilins was determined using surface plasmon resonance (SPR) experiments. Briefly, avi-tagged cyclophilin proteins with mono-biotinylation were immobilized onto a Biotin CAPture chip (GE Healthcare, cat. #28920234). SPR experiments were carried out on an upgraded Biacore T200 system using a running buffer containing the inhibitor, 10 mM HEPES, pH 7.4, 150 mM NaCl, 0.05% P20, and 3% DMSO. Single-cycle kinetics measurements were used to study the interactions between cyclophilin inhibitors and different cyclophlins. Accordingly, compound at various concentrations was injected to the flow cells with a contact time of 1 min each at a flow rate of 50 μL/min. The final dissociation phase lasts for 10 min following the sample injection. Data was analyzed using Biacore T200 Evaluation Software Version 1.0 and a 1:1 binding model was applied to fit the data to obtain kon, koff, and KD.

[1] = test system: genotype 1b subgenomic HCV replicon in Huh7.5 cells; assay type: cell-based, hepatitis C virus; details: read-out: RPLN-1b IC50
Method: Method 2: Measuring Inhibitory Effects in a HCV Replicon System
Susceptibility to compounds was analyzed in Huh7.5 cells containing genotype 1a or 1b subgenomic HCV replicons co-expressing a luciferase reporter gene. The original replicons, pFK389lucubineo_3_3′_ET and pH/SG-Neo(L+I), were licensed from ReBlicon GmbH (Germany) and Apath LLC (Saint Louis, Mo.), respectively. The firefly reporter gen was replaced by renilla luciferase reporter gene using standard molecular biology techniques as follows.
Generation of genotype 1b subgenomic replicon: The renilla […]-neomycin phosphotransferase cassette was amplified from pF9 cytomegalovirus (CMV) hRluc-Neo Flexi(R) (Promega) by PCR using Accuprime super mix II (Invitrogen) and a primer set of Ascl hRlucNeo Fwd and NotI hRluc Rev. These two primers have the following sequences and introduce restriction sites for subsequent cloning: Ascl hRlucNeo Fwd, 5 […] 3(Ascl site underlined) (SEQ. ID No. 1), and NotI hRluc Rev, 5[…] 3(NotI site underlined) (SEQ ID No. 2). The amplification product was subcloned into pCR2.1-TOPO (Invitrogen). The resulting plasmid was digested with Ascl and NotI, and the excised fragment (hRluc-Neo) was ligated with the Roche Quick Ligation Kit (Roche) into pFK1389lucubineo_3_3′_ET digested with the same enzymes.
The assay medium for both, luciferase reporter HCV replicon and cytotoxicity assays contains phenol red-free DMEM and lacks G418. […] Luciferase activity of compound treated cells is measured relative to DMSO treated cells after 72 h incubation using Renilla-Glo™ Luciferase Assay (Promega). Cytotoxicity (CC50) is analyzed using Cell Titer-Glo™ (Promega).

[2] = test system: peripheral blood mononuclear cells (PBMC); experiment: Anti-proliferative or immunosuppressive activity, BrdU incorporation in PHA-stimulated PBMC; assay type: cell-based; details: PHA 3 μg/ml, 60 hour compound treatment; read-out: EMV PBMC IC50
Method: Method 3: Measuring Anti-Proliferative or Immunosuppressive Activity
The potential anti-proliferative activity of compounds on T-cells was analyzed based on the amount of bromodesoxy uridine (BrdU) incorporated into DNA of fresh peripheral blood mononuclear cells (PBMC) using the BrdU ELISA kit (Roche). The assay is performed in 96-well plate format with 30,000 PBMCs seeded per well in X-VIVO 15 medium (Lonza). T-cell proliferation was stimulated by addition of 3 μg/ml phytohemagglutinin (PHA) in PBMCs obtained from two donors.

cyclophilin B (CypB) = cyclophilin B (CypB) (Homo sapiens (Human), UniProt P23284); experiment: Inhibitor binding to cyclophilin proteins by SPR, CypB; set-up: unit not given here; details: 1:1 binding model
cyclophilin B (CypB), sequence (P23284 34-216): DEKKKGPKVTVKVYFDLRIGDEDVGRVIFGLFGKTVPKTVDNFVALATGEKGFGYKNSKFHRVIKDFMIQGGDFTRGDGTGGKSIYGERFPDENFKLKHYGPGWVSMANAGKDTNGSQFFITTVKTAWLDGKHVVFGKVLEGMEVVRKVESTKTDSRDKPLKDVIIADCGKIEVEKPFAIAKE
Method: as §1, §2

cyclophilin A (CypA) = cyclophilin A (CypA) (Homo sapiens (Human), UniProt P62937); experiment: Inhibitor binding to cyclophilin proteins by SPR, CypA; set-up: unit not given here; details: 1:1 binding model
cyclophilin A (CypA), sequence (P62937 whole entry): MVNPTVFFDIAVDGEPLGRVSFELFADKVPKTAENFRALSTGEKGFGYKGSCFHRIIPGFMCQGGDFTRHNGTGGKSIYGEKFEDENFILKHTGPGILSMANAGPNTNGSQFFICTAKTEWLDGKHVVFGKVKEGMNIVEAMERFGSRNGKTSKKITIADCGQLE

[3] = genotype 1b replicon, 72 h incubation

SMILES	CypF Kd (CypF) [µM]	IC50 [1, 3] [µM]	IC50 [2] [µM]	CypB Kd (cyclophilin B (CypB))	CypA Kd (cyclophilin A (CypA))	IC50 [1] [µM]
C/C=C/C[C@@H](C)[C@@H](O)[C@H]1C(=O)N[C@@H](CC)C(=O)N(C)[C@H](C)C(=O)N(C)[C@@H]([C@H](C)COCCN2CCN3C(=O)OC[C@@H]3C2)C(=O)N[C@@H](C(C)C)C(=O)N(C)[C@@H](CC(C)C)C(=O)N[C@@H](C)C(=O)N[C@H](C)C(=O)N(C)[C@@H](CC(C)C)C(=O)N(C)[C@@H](CC(C)C)C(=O)N(C)[C@@H](C(C)C)C(=O)N1C [Compound 2.8.11, 3-[D-Ala]-4-[(2S,3S)-3-methyl-2-(methylamino)-4-(2-((S)-3-oxotetrahydro-1H-oxazolo[3,4-a]pyrazin-7(3H)-yl)ethoxy)butanoyl]-cyclosporin]	0.0005	0.058	12.4	0.6	1.3	
C/C=C/C[C@@H](C)[C@@H](O)[C@H]1C(=O)N[C@@H](CC)C(=O)N(C)[C@H](C)C(=O)N(C)[C@@H]([C@H](C)COC(=O)N(C)C2CCN(C)CC2)C(=O)N[C@@H](C(C)C)C(=O)N(C)[C@@H](CC(C)C)C(=O)N[C@@H](C)C(=O)N[C@H](C)C(=O)N(C)[C@@H](CC(C)C)C(=O)N(C)[C@@H](CC(C)C)C(=O)N(C)[C@@H](C(C)C)C(=O)N1C [Compound 2.5.32, 3-[D-Ala]-4-[(2S,3S)-3-methyl-4-((methyl(1-methylpiperidin-4-yl)carbamoyl)oxy)-2-(methylamino)butanoyl]-cyclosporin]	0.0004	0.15	9.5	0.5	0.7	
C/C=C/C[C@@H](C)[C@@H](O)[C@H]1C(=O)N[C@@H](CC)C(=O)N(C)[C@H](CCCNC)C(=O)N(C)[C@@H]([C@H](C)COC)C(=O)N[C@@H](C(C)C)C(=O)N(C)[C@@H](CC(C)C)C(=O)N[C@@H](C)C(=O)N[C@H](C)C(=O)N(C)[C@@H](CC(C)C)C(=O)N(C)[C@@H](CC(C)C)C(=O)N(C)[C@@H](C(C)C)C(=O)N1C (stereo in doubt) [Compound 3.2.1, 3-[(R)-2,5-bis(methylamino)pentanoyl]-4-[(2S,3S)-4-methoxy-3-methyl-2-(methylamino)butanoyl]-cyclosporin]	0.0034	4.8	34.9	3.0	6.3	
C/C=C/C[C@@H](C)[C@@H](O)[C@H]1C(=O)N[C@@H](CC)C(=O)N(C)[C@H](C)C(=O)N(C)[C@@H]([C@H](C)COC(=O)N2CCC(O)CC2)C(=O)N[C@@H](C(C)C)C(=O)N(C)[C@@H](CC(C)C)C(=O)N[C@@H](C)C(=O)N[C@H](C)C(=O)N(C)[C@@H](CC(C)C)C(=O)N(C)[C@@H](CC(C)C)C(=O)N(C)[C@@H](C(C)C)C(=O)N1C [Compound 2.5.8, 3-[D-Ala]-4-[(2S,3S)-4-((4-hydroxypiperidine-1-carbonyl)oxy)-3-methyl-2-(methylamino)butanoyl]-cyclosporin] (cyclo(A[dA][NMeL][NMeL][NMeV][MeBmt][Abu][dNMeA][X83]V[NMeL]))	0.001			1.0	1.7	
C/C=C/C[C@@H](C)[C@@H](O)[C@H]1C(=O)N[C@@H](CC)C(=O)N(C)[C@H](C)C(=O)N(C)[C@@H]([C@H](C)CCCN2CC3CCC(C2)N3C)C(=O)N[C@@H](C(C)C)C(=O)N(C)[C@@H](CC(C)C)C(=O)N[C@@H](C)C(=O)N[C@H](C)C(=O)N(C)[C@@H](CC(C)C)C(=O)N(C)[C@@H](CC(C)C)C(=O)N(C)[C@@H](C(C)C)C(=O)N1C [Compound 2.19.3] (cyclo(A[dA][NMeL][NMeL][NMeV][MeBmt][Abu][dNMeA][X60]V[NMeL]))	0.0003	0.29	2	0.4	0.8	
C/C=C/C[C@@H](C)[C@@H](O)[C@H]1C(=O)N[C@@H](CC)C(=O)N(C)[C@H](C)C(=O)N(C)[C@@H]([C@@H](C)CO)C(=O)N[C@@H](C(C)C)C(=O)N(C)[C@@H](CC(C)C)C(=O)N[C@@H](C)C(=O)N[C@H](C)C(=O)N(C)[C@@H](CC(C)C)C(=O)N(C)[C@@H](CC(C)C)C(=O)N(C)[C@@H](C(C)C)C(=O)N1C [Compound 2.17.13, 3-[D-Ala]-4-[(2S,3R)-4-hydroxy-3-methyl-2-(methylamino)butanoyl]-cyclosporin] (cyclo(A[dA][NMeL][NMeL][NMeV][MeBmt][Abu][dNMeA][X86]V[NMeL]))		0.085				
C/C=C/C[C@@H](C)[C@@H](O)[C@H]1C(=O)N[C@@H](CC)C(=O)N(C)[C@H](CO)C(=O)N(C)[C@@H]([C@H](C)COC)C(=O)N[C@@H](C(C)C)C(=O)N(C)[C@@H](CC(C)C)C(=O)N[C@@H](C)C(=O)N[C@H](C)C(=O)N(C)[C@@H](CC(C)C)C(=O)N(C)[C@@H](CC(C)C)C(=O)N(C)[C@@H](C(C)C)C(=O)N1C [Compound 3.2.3, 3-[D-ser]-4-[(2S,3S)-4-methoxy-3-methyl-2-(methylamino)butanoyl]-cyclosporin] (cyclo(A[dA][NMeL][NMeL][NMeV][MeBmt][Abu][dNMeS][NMeVal(4-OMe,3S)]V[NMeL]))	0.007		8.9	7	15	0.33
C/C=C/C[C@@H](C)[C@@H](O)[C@H]1C(=O)N[C@@H](CC)C(=O)N(C)[C@H](C)C(=O)N(C)[C@@H]([C@H](C)CN2CCC(C#N)CC2)C(=O)N[C@@H](C(C)C)C(=O)N(C)[C@@H](CC(C)C)C(=O)N[C@@H](C)C(=O)N[C@H](C)C(=O)N(C)[C@@H](CC(C)C)C(=O)N(C)[C@@H](CC(C)C)C(=O)N(C)[C@@H](C(C)C)C(=O)N1C [Compound 2.5.26, 3-[D-Ala]-4-[(2S,3R)-4-(4-cyanopiperidin-1-yl)-3-methyl-2-(methylamino)butanoyl]-cyclosporin] (cyclo(A[dA][NMeL][NMeL][NMeV][MeBmt][Abu][dNMeA][X39]V[NMeL]))	0.0008	0.029	11.6	0.8	1.3	
C/C=C/C[C@@H](C)[C@@H](O)[C@H]1C(=O)N[C@@H](CC)C(=O)N(C)[C@H](C)C(=O)N(C)[C@@H]([C@H](C)CN2CCO[C@H](COC)C2)C(=O)N[C@@H](C(C)C)C(=O)N(C)[C@@H](CC(C)C)C(=O)N[C@@H](C)C(=O)N[C@H](C)C(=O)N(C)[C@@H](CC(C)C)C(=O)N(C)[C@@H](CC(C)C)C(=O)N(C)[C@@H](C(C)C)C(=O)N1C [Compound 2.5.34, 3-[D-Ala]-4-[(2S,3R)-4-((S)-2-(methoxymethyl)morpholino)-3-methyl-2-(methylamino)butanoyl]-cyclosporin] (cyclo(A[dA][NMeL][NMeL][NMeV][MeBmt][Abu][dNMeA][X64]V[NMeL]))	0.0006	0.027	19	0.6	1.3	
CCCC[C@@H](C)[C@@H](O)[C@H]1C(=O)N[C@@H](CC)C(=O)N(C)[C@H](C)C(=O)N(C)[C@@H]([C@@H](C)CN2CCO[C@H](COC)C2)C(=O)N[C@@H](C(C)C)C(=O)N(C)[C@@H](CC(C)C)C(=O)N[C@@H](C)C(=O)N[C@H](C)C(=O)N(C)[C@@H](CC(C)C)C(=O)N(C)[C@@H](CC(C)C)C(=O)N(C)[C@@H](C(C)C)C(=O)N1C [Compound 2.17.12, 1-dihydro-3-[D-Ala]-4-[(2S,3S)-4-((S)-2-(methoxymethyl)morpholino)-3-methyl-2-(methylamino)butanoyl]-cyclosporin]	0.0008	0.075		0.7	1.7	
